This passage reports GI50 results from patent US9290481B2, “Monocyclic heteroaryl cycloalkyldiamine derivatives” (NOVARTIS AG, priority 2012, dated 2016).

By GI50 is commonly meant the concentration at which growth is held to half of that of the control. Read a high GI50 as lower sensitivity of the cells.

For test [1], the system named is OCl-Ly3 cells. Nature of the test: B-cell lymphoma cell proliferation (WST-1 assay), OCl-Ly3. It is filed as cell-based. The following applies: 4 days of incubation. The method, then: Cell proliferation was determined using the WST-1 assay (Roche, Mannheim, Germany), which measures the metabolic activity of the cells. […] The cell proliferation reagent WST-1 (10 μl/well) was added to the cells for 1-2 hours depending on the cell type which were cultured in 200 μl of medium. The absorbance was then measured with an enzyme-linked immunosorbent assay plate reader at a wavelength of 450 nm.
Background: Tetrazolium dyes change colour on reduction, which living cells bring about.

Test [2] deals with OCl-Ly10 cells. Nature of the test: B-cell lymphoma cell proliferation (WST-1 assay), OCl-Ly10. It is filed as cell-based. As to conditions: 72 h, 3 days of incubation. The method, then:
Cell proliferation was determined using the WST-1 assay (Roche, Mannheim, Germany), which measures the metabolic activity of the cells. Briefly, 5×10^5 TMD-8, OCl-Ly3, and OCl-Ly10 cells/well and 10×10^5 HBL-1 cells/well were seeded in triplicate in 96-well plates and were incubated with various concentrations of compounds to be tested for 3 days. The cell proliferation reagent WST-1 (10 μl/well) was added to the cells for 1-2 hours depending on the cell type which were cultured in 200 μl of medium. The absorbance was then measured with an enzyme-linked immunosorbent assay plate reader at a wavelength of 450 nm.

`NC(=O)c1nnc(N[C@@H]2CCCC[C@@H]2N)nc1Nc1cccc2cc[nH]c12` [Example 1.1, 3-((1R,2S)-2-Amino-cyclohexylamino)-5-(1H-indol-7-ylamino)-[1,2,4]triazine-6-carboxylic acid amide]: the GI50 entry in test [1] was “No inhibition”; in test [2] it was 25 nM.
